Several values for one entry are separate records, joined by “and”; a condition that tells them apart may be missing. Equal values may be shown once.
How the values were obtained:
rats = assay: Chronic 28-day non-GLP toxicology in rats
[1] = test system: conscious dogs with structural atrial remodelling; assay: Chronic rapid atrial pacing induced atrial remodelling and burst-induced atrial fibrillation in conscious dogs
Method: The experiments were performed on chronically instrumented Beagle dogs of both sexes, weighing 12-13 kg. The animals were subjected to the following surgery under general anaesthesia: pacemakers were implanted into bilateral subcutaneous pockets in the neck area (Logos, Karios; Biotronik Hungaria Ltd.) and were attached to pacemaker electrodes implanted into the right ventricle and right atrium. Radiofrequency catheter ablation was performed in each animal to achieve third degree atrioventricular (AV) block so that during subsequent rapid atrial pacing (400/min) the ventricles are protected from high heart rates. […] On the seventh day after surgery, following the measurement of right atrial effective refractory period the atrial pacemaker was set to a frequency of 400/min to achieve atrial electrical and structural remodelling. Right atrial rapid pacing is necessary to maintain for 3 months in this model to obtain complete remodeling of the atria signalled by the reduction of right atrial effective refractory period below 80 ms.
(§1) The body weight of animals was monitored for strict adherence to the desired dose.
(§2) The right atrial effective refractory period (ERP) was measured using the S1 -S2 protocol at cycle lengths of 150 and 300 ms. In addition ERP monitoring, 10-second long burst stimuli were applied at 800/min frequency to induce atrial fibrillation and the incidence of AF, the duration of AF episodes were measured before commencement of oral drug therapy and then after the initiation of therapy every 4 days.

[2] = Cardiac, liver and lung tissue DEA and AMIO levels in dogs with atrial fibrillation and structural atrial remodelling; settings: for concentration at 4 weeks: both, Beagle, dog, oral, 50 mg/kg/day
Method: as §1, §2
Cardiac tissue drug levels were measured in right atrial, left atrial, right ventricular and left ventricular tissue samples. Following the sacrifice of the animals (the subsequent day after the 4-week treatment), tissue samples were taken before tissue preparations were isolated for in vitro studies.

[3] = test system: dog atrial and ventricular tissue; assay: Atrial and ventricular action potential parameters after chronic oral treatment of non-instrumented dogs; type: in vivo, Beagle dogs; settings: 500 ms cycle length, 4-week oral DEA 30 or AMIO 45 mg/kg/day
[4] = Plasma and tissue DEA and AMIO levels in non-instrumented dogs; settings: 4-week oral AMIO 45 mg/kg/day, individual dogs 1 and 2
conscious rats = test system: conscious rats
Method: The present experiments were performed on male, Sprague-Dawley CFY rats weighing 260-300 g. During a preliminary open-chest surgery we applied a loose silk loop around the left main coronary artery, and then the chest was closed (Leprán et al., 1983). Seven-eight days after the preliminary surgery—after complete recovery and healing—the loose silk loop was tightened to occlude the coronary artery in conscious, freely moving animals. During the first 15 min of myocardial infarction a bipolar ECG was recorded continuously (PowerLab 8SP, ADInstruments, Great Britain).
We followed the survival rate during the acute phase (first 15 min) and during the subsequent 16 hours after coronary artery occlusion. The incidence and duration of arrhythmias in the acute phase were evaluated according to the Lambeth Conventions (Walker et al., 1988), i.e. ventricular fibrillation, ventricular tachycardia, and other types of arrhythmias, including ventricular extrasystoles, bigeminy, and salvos. The size of myocardial infarction was measured in the animals surviving for 16 hours after coronary artery occlusion using nitrotetrazolium-blue dye staining.
Long-term oral pretreatment was applied for 1 month before the coronary artery occlusion. […] Control animals were given the vehicle in a volume of 5 ml/kg.

[5] = dogs with AF, 4-week oral AMIO 50 mg/kg/day
[6] = dogs with structural atrial remodelling, 4-week oral AMIO 50 mg/kg/day

CCCCc1oc2ccccc2c1C(=O)c1cc(I)c(OCCN(CC)CC)c(I)c1 [AMIO, amiodarone]
Hepatic function alterations (total cholesterol, alkaline phosphatase [ALP]) (rats; 28-day oral AMIO 200 mg/kg/day compared to DEA 100 mg/kg/day): more robust | Alveolar histiocytosis in the lungs (rats; 28-day oral AMIO 200 mg/kg/day or DEA 100 mg/kg/day): alveolar histiocytosis was detected | Detection of the administered drug 14 days after the completion of administration (rats; 28-day oral AMIO 200 mg/kg/day or DEA 100 mg/kg/day, plasma (DEA: plasma or cardiac tissue)): could be detected in plasma samples | Increase in body weight following 28-day treatment (rats; AMIO 200 mg/kg/day or DEA 100 mg/kg/day, normal increase 44 g): 13 g | Food consumption and appetite (rats; first 3 weeks of 200 mg/kg/day AMIO, compared to control and 100 mg/kg/day DEA treated animals): reduced | Mood, behaviour, appetite and body weight ([1]; dogs, 4-week oral, DEA 25, AMIO 50 mg/kg/day): loss of appetite followed by a reduction in body weight | Lg AF duration, Following 4-week treatment, individual animals ([1]; oral AMIO 50 mg/kg/day, Control (before) 2.59, 3.12, 4.35): 1.35 and 0.88 and 0.12 | AF duration (s), Following 4-week treatment, individual animals ([1]; oral AMIO 50 mg/kg/day, Control (before) 386.5, 1 302.9, 2 2663.7): 22.5 s and 7.5 s and 1.31 s | ERP, Following 4-week treatment, individual animals ([1]; oral AMIO 50 mg/kg/day, animals 2011/01, 2011/08, 2011/9, Control (before) 90, <80, 80): 100 ms (2×) and 130 ms | Incidence of AF, Following 4-week treatment, individual animals ([1]; oral AMIO 50 mg/kg/day, burst-induced AF, Control (before) 100%, 90%, 67%): 40% and 10% (2×) | Lg AF duration, Following 4-week treatment, Mean ± SE ([1]; oral AMIO 50 mg/kg/day, n=3, Control (before) 3.35 ± 0.52): 0.78 ± 0.36 | Incidence of AF, Following 4-week treatment, Mean ± SE ([1]; oral AMIO 50 mg/kg/day, n=3, Control (before) 88.0 ± 10.54): 20.0 ± 10.0 % | AF duration (s), Following 4-week treatment, Mean ± SE ([1]; oral AMIO 50 mg/kg/day, n=3, Control (before) 8117.7 ± 7277.8): 10.4 ± 6.29 s | Incidence and duration of atrial fibrillation ([1]; three animals, 4-week oral treatment, DEA 25, AMIO 50 mg/kg/day, accompanied by prolongation of the ERP): showed a decreasing tendency | Liver and lung tissue concentrations of DEA in chronic AMIO treated dogs compared to chronic DEA treated dogs ([2]; AF model dogs, oral AMIO 50 mg/kg/day vs DEA 25 mg/kg/day): more than three times higher | concentration at 4 weeks ([2]; left atrium, Left atrium AMIO level, Mean, dogs with AF, 4-week oral AMIO 50 mg/kg/day, n=3): 35200 ng/g | concentration at 4 weeks ([2]; left atrium, Left atrium AMIO level, individual animals, dogs with AF, 4-week oral AMIO 50 mg/kg/day): 32600 ng/g | concentration at 4 weeks ([2]; left ventricle, Left ventricle AMIO level, Mean, dogs with AF, 4-week oral AMIO 50 mg/kg/day, n=3): 34400 ng/g | concentration at 4 weeks ([2]; left ventricle, Left ventricle AMIO level, individual animals, dogs with AF, 4-week oral AMIO 50 mg/kg/day): 36600 ng/g | concentration at 4 weeks ([2]; right atrium, Right atrium AMIO level, Mean, dogs with AF, 4-week oral AMIO 50 mg/kg/day, n=3): 24600 ng/g | concentration at 4 weeks ([2]; right ventricle, Right ventricle AMIO level, Mean, dogs with AF, 4-week oral AMIO 50 mg/kg/day, n=3): 34700 ng/g | concentration at 4 weeks ([2]; right ventricle, Right ventricle AMIO level, individual animals, dogs with AF, 4-week oral AMIO 50 mg/kg/day): 40800 ng/g | Left atrium AMIO level, individual animals [2, 5]: 39.045 μg/tissue g and 33.89 μg/tissue g | Left ventricle AMIO level, individual animals [2, 5]: 42.573 μg/tissue g and 24.061 μg/tissue g | Right atrium AMIO level, individual animals [2, 5]: 47.005 μg/tissue g and 19.936 μg/tissue g and 6.933 μg/tissue g | Right ventricle AMIO level, individual animals [2, 5]: 37.033 μg/tissue g and 26.349 μg/tissue g | Liver AMIO level, Mean ± SE [2, 6]: 126.8 ± 41.58 μg/tissue g | Liver AMIO level, individual animals [2, 6]: 123.961 μg/tissue g and 200.27 μg/tissue g and 56.314 μg/tissue g | Lung AMIO level, Mean ± SE [2, 6]: 215.1 ± 60.12 μg/tissue g | Lung AMIO level, individual animals [2, 6]: 312.24 μg/tissue g and 227.793 μg/tissue g and 105.152 μg/tissue g | Vmax (V/s), Dog atrium ([3]; n = 3, CONTROL 249.7 ± 52.7): 252.9 ± 56.7 V/s | APD90 (ms), Dog atrium ([3]; n = 4, CONTROL 123.9 ± 9.6): 140.8 ± 12.4 ms | Kidney AMIO level [4]: 112.173 μg/tissue g | Left Ventricle AMIO level [4]: 81.928 μg/tissue g | Liver AMIO level [4]: 177.317 μg/tissue g | Lung AMIO level [4]: 178.360 μg/tissue g | Right Atrium AMIO level [4]: 75.854 μg/tissue g and 152.023 μg/tissue g | Death due to the 1 month treatment (conscious rats; 1 month oral pretreatment): No death occurred | Survival rate during the acute phase of experimental myocardial infarction (conscious rats; 1 month oral pretreatment): significantly improved | Behavioral changes, body weight increments (conscious rats; 1 month oral pretreatment, AMIO 30 or 100, DEA 15 or 50 mg/kg/day): Neither AMIO nor DEA produced any behavioral changes of the animals, or in body weight increments | Arrhythmia score (conscious rats; first 15 min after coronary artery occlusion, 1 month oral AMIO 100 or DEA 50 mg/kg/day, control 4.77±0.33): 2.05±0.52 | Incidence of ventricular fibrillation (conscious rats; larger doses (AMIO 100, DEA 50 mg/kg/day), after coronary artery occlusion): significantly decreased

— patent US20150150842A1, “DESETHYLAMIODARONE COMPOSITIONS” (priority 2012, published 2015)
